Experimental data taken from patent US20110028507A1, “PYRIDINE DERIVATIVES AND METHODS OF USE THEREOF” (CRYSTALGENOMICS, INC., priority 2007, published 2011).
Read-outs that look alike come from different tables or passages of the source.

Tests used:
[1] = molecular target: T1, HIF-PH2 (EGLN1) (Homo sapiens, UniProt Q9GZT9); test: HIF-PH2 (PHD2) assay (fluorescence polarization method); format: biochemical; conditions: 200 nM HIF PH2 enzyme, 50 nM peptide substrate, 30° C. one hour; read-out: IC50 (HIF PH2 inhibition activity)
T1 construct: made in house; host or cells: E. coli
Protocol: HIF-PH2 (EGLN1) was expressed from E. coli cells, and purified using two process: an Ni-affinity chromatography column and a size-exclusion chromatography column.
To evaluate activities of an HIF PH2 inhibitor, HIF PH2 enzyme that was first overexpressed by genetic recombination and then purified was used to perform an enzyme reaction. […] At this time, 2 mM ascorbic acid and 5 mM ketoglutarate with 100 μM FeCl2 or without FeCl2, were used together with crude enzyme. A concentration of HIF PH2 inhibitor to be tested was treated and reacted at 30° C. for one hour. After the reaction, the resulting reaction product was boiled at 95° C. for one minute to suppress the enzyme reaction.
To determine whether prolyl hydroxylation occurs in the substrate as the secondary reaction, 500 nM GST-VBC (GST-VHL-Elongin B-Elongin C) protein was added to a reaction buffer (50 mM Tris-Cl (pH8.0), 120 mM NaCl, 0.5% Nonidet P40), and a GST-VBC binding reaction was carried out at room temperature for 30 minutes.
A fluorescence polarization value of a sample that is not treated with the HIF PH2 inhibitor was used as 100% control, and the activities of the HIF PH2 inhibitor were measured as percentage of the remaining HIF PH2 enzyme activity in samples treated with a concentration of the HIF PH2 inhibitor to be tested.

[2] = system: VEGF gene; test: Cell-based luciferase reporter assay, pVEGF-Luc in HeLa cells; conditions: Homo sapiens, compound 100 μM, 24 hrs
Excerpt: (§1) A luciferase assay was used to determine the changes in transcription amount of EPO and VEGF genes in cells. For the luciferase assay, a human HIF I a gene was first cloned into an animal cell expression vector, pFlag-CMV, to prepare a pFlag-HIF1α vector, and a hypoxia responsible element (HRE) sequence of an EPO gene 3′-enhancer domain was then cloned upstream of luciferase and TK promoter genes to prepare a pEPO HRE-Luc expression vector. Also, the promoter and luciferase domains of the VEGF gene were cloned into a pGL3-basic vector to prepare a pVEGF-Luc expression vector. HeLa cells were seed-cultured in a medium dish to grow to about 70-80% density one day before the HeLa cells were to be used. The HeLa cells were transfected with each of the prepared pEPO HRE-Luc and pVEGF-Luc expression vectors together with the pFlag-HIF1α and the Renilla luciferase expression vector (Promega, Madison, Wis., USA), by using LipofectAMINE PLUS™ (Invitrogen Life Technologies, Carlsbad Calif.). Three hours after the transfection, the medium was exchanged with DMEM, 1% Penicillin-Streptomycin in 10% FBS supplemented with serum. At this time, cultured cells were treated with each of the compounds at the concentrations indicated. Then, the cells were cultured for 24 hrs in an incubator that was maintained under conditions of 37° C., 20% O2 and 5% CO2. After culturing, cells were washed twice with cold phosphate buffer saline (PBS). Luciferase activity of the cells was measured using the dual luciferase assay system (Promega, Madison, Wis., USA).

[3] = system: EPO gene; test: Cell-based luciferase reporter assay, pEPO HRE-Luc in HeLa cells; conditions: Homo sapiens, compound 100 μM, 24 hrs, read-out: EPO fold induction over control
Excerpt: as §1

[4] = system: EPO; test: Human EPO immunoassay (ELISA of Hep3B culture media); format: cell-based; conditions: Hep3B cells, compound at 100 μM, 24-hour incubation; for EPO (mIU/ml): culture media ELISA; for fold induction at 100 µM: Homo sapiens, read-out: Fold Induction over control (EPO Induction)
Protocol: Human cells derived from hepatocarcinoma (Hep3B) tissue (see, e.g., American Type Culture Collection, Manassas Va.) were grown at 37° C., 20% O2, 5% CO2 in DMEM (GIBCO)+10% FBS, 4.5 g/L D-Glucose; L-Glutamate and 110 mg/L sodium pyruvate. Ninety-six well plates were seeded with 4×10^4 HEP3B cells/well. The media was removed and replaced with DMEM+10% FBS. Compounds were added to wells at concentrations between 1 μM-100 μM for a 24-hour incubation. Cell culture media was harvested and EPO concentration was determined using a Human Erythropoietin Quantikine IVD ELISA Kit (R&D Systems®, Minneapolis, Minn.) following the manufacturer's instructions for the benchtop assay.

[5] = read-out: VEGF 1 fold induction over control
[6] = read-out: VEGF 2 fold induction over control

T1 sequence (Q9GZT9 whole entry, species assumed): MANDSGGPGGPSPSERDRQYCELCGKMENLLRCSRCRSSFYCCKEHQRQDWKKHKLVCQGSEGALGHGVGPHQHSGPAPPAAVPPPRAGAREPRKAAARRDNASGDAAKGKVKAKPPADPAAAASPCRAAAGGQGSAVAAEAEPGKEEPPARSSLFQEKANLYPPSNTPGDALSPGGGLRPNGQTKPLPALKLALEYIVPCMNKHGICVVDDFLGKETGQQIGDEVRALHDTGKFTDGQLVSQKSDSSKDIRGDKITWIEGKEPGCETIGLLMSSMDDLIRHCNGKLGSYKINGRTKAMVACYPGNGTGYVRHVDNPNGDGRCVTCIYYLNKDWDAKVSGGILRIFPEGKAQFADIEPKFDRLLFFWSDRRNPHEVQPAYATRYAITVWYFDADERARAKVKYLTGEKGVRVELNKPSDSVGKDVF

| SMILES | IC50 [1] | fold induction at 100 µM [2, 5] | fold induction at 100 µM [3] | EPO (mIU/ml) [4] | fold induction at 100 µM [4] | fold induction at 100 µM [2, 6] |
| --- | --- | --- | --- | --- | --- | --- |
| O=C(NCc1ccccn1)c1nc(Br)c2c(sc3ccccc32)c1O [1-Bromo-4-hydroxy-benzo[4,5]thieno[3,2-c]pyridine-3-carboxylic acid (pyridin-2-ylmethyl)-amide] | < 25 µM | 2.1 to 4 | < 2 |  |  |  |
| COc1ccc(Cn2nnnc2CNC(=O)c2nc(Br)c3c(sc4ccccc43)c2O)cc1 [1-Bromo-4-hydroxy-benzo[4,5]thieno[3,2-c]pyridine-3-carboxylic acid [1-(4-methoxy-benzyl)-1H-tetrazol-5-ylmethyl]-amide] | 26 to 100 µM | < 2 | < 2 |  |  |  |
| COc1ccc(Cn2nnc(CNC(=O)c3nc(Br)c4c(sc5ccccc54)c3O)n2)cc1 [1-Bromo-4-hydroxy-benzo[4,5]thieno[3,2-c]pyridine-3-carboxylic acid [2-(4-methoxy-benzyl)-2H-tetrazol-5-ylmethyl]-amide] | < 25 µM | 2.1 to 4 | < 2 |  |  |  |
| O=C(NCc1ccccc1)c1nc(Br)c2c(sc3ccccc32)c1O [1-Bromo-4-hydroxy-benzo[4,5]thieno[3,2-c]pyridine-3-carboxylic acid benzylamide] | 26 to 100 µM | < 2 | < 2 |  |  |  |
| Nc1ccc2sc3c(O)c(C(=O)NCC(=O)O)nc(Cl)c3c2c1 [3-(Carboxymethyl-carbamoyl)-1-chloro-4-hydroxy-benzo[4,5]thieno[3,2-c]pyridin-8-yl-ammonium] | < 25 µM | 2.1 to 4 | 2.1 to 4 |  |  |  |
| C[C@H](NC(=O)c1nc(Br)c2c(sc3ccccc32)c1O)C(=O)O [(S)-2-[(1-Bromo-4-hydroxy-benzo[4,5]thieno[3,2-c]pyridine-3-carbonyl)-amino]-propionic acid] | 26 to 100 µM | > 4.1 | 2.1 to 4 |  |  |  |
| C[C@H](NC(=O)c1nc(Cl)c2c(sc3ccccc32)c1O)C(=O)O [(S)-2-[(1-Chloro-4-hydroxy-benzo[4,5]thieno[3,2-c]pyridine-3-carbonyl)-amino]-propionic acid] | 26 to 100 µM | > 4.1 | 2.1 to 4 |  |  |  |
| O=C(O)CNC(=O)c1nc(Br)c2c(sc3ccccc32)c1O [[(1-Bromo-4-hydroxy-benzo[4,5]thieno[3,2-c]pyridine-3-carbonyl)-amino]-acetic acid] | < 25 µM | 4 | > 4.1 |  |  |  |
| O=C(O)CNC(=O)c1nc(Cl)c2c(sc3ccc([N+](=O)[O-])cc32)c1O [[(1-Chloro-4-hydroxy-8-nitro-benzo[4,5]thieno[3,2-c]pyridine-3-carbonyl)-amino]-acetic acid] | < 25 µM | > 4.1 | 2.1 to 4 |  |  |  |
| O=C(O)CNC(=O)c1nc(Cl)c2c(sc3ccccc32)c1O [[(1-Chloro-4-hydroxy-benzo[4,5]thieno[3,2-c]pyridine-3-carbonyl)-amino]-acetic acid] |  | > 4.1 | > 4.1 | J (J = 21-40 mIU/ml) | 21 to 50 | > 4.1 |
| O=C(O)CNC(=O)c1nc(Cl)c2c(sc3c(F)cccc32)c1O [[(1-Chloro-6-fluoro-4-hydroxy-benzo[4,5]thieno[3,2-c]pyridine-3-carbonyl)-amino]-acetic acid] | < 25 µM | 2.1 to 4 | 2.1 to 4 | I (I = 0-20 mIU/ml) | < 20 |  |
| O=C(O)CNC(=O)c1nc(Cl)c2c(sc3cc(F)ccc32)c1O [[(1-Chloro-7-fluoro-4-hydroxy-benzo[4,5]thieno[3,2-c]pyridine-3-carbonyl)-amino]-acetic acid] | < 25 µM | > 4.1 | > 4.1 | K (K = 41-60 mIU/ml) | 51 to 70 |  |
| CN(C)c1ccc2sc3c(O)c(C(=O)NCC(=O)O)nc(Cl)c3c2c1 [[(1-Chloro-8-dimethylamino-4-hydroxy-benzo[4,5]thieno[3,2-c]pyridine-3-carbonyl)-amino]-acetic acid] | < 25 µM | > 4.1 | > 4.1 |  |  |  |
| O=C(O)CNC(=O)c1nc(Cl)c2c(sc3ccc(F)cc32)c1O [[(1-Chloro-8-fluoro-4-hydroxy-benzo[4,5]thieno[3,2-c]pyridine-3-carbonyl)-amino]-acetic acid] | < 25 µM | 2.1 to 4 | > 4.1 | J (J = 21-40 mIU/ml) | 21 to 50 |  |
| O=C(O)CNC(=O)c1nc(Cl)c2c(sc3cccc(F)c32)c1O [[(1-Chloro-9-fluoro-4-hydroxy-benzo[4,5]thieno[3,2-c]pyridine-3-carbonyl)-amino]-acetic acid] | < 25 µM |  |  | K (K = 41-60 mIU/ml) | > 71 | 2.1 to 4 |
| N#Cc1nc(C(=O)NCC(=O)O)c(O)c2sc3ccccc3c12 [[(1-Cyano-4-hydroxy-benzo[4,5]thieno[3,2-c]pyridine-3-carbonyl)-amino]-acetic acid] |  | 2.1 to 4 | < 2 |  |  |  |
| O=C(O)CNC(=O)c1ncc2c(cnn2-c2ccccc2)c1O [[(4-Hydroxy-1-phenyl-1H-pyrazolo[3,4-c]pyridine-5-carbonyl)-amino]-acetic acid] | < 25 µM | 2.1 to 4 | > 4.1 |  |  |  |
| O=C(O)CNC(=O)c1nc(Cl)c2c(cnn2-c2ccccc2)c1O [[(7-Chloro-4-hydroxy-1-phenyl-1H-pyrazolo[3,4-c]pyridine-5-carbonyl)-amino]-acetic acid] | < 25 µM | 2.1 to 4 | > 4.1 |  |  |  |
| CC(=O)Nc1ccc2sc3c(O)c(C(=O)NCC(=O)O)nc(Cl)c3c2c1 [[(8-Acetylamino-1-chloro-4-hydroxy-benzo[4,5]thieno[3,2-c]pyridine-3-carbonyl)-amino]-acetic acid] | < 25 µM |  |  |  |  | < 2 |
